Laboratory results as given in ChEMBL document CHEMBL1123376, “3-(1H-tetrazol-5-yl)-4(3H)-quinazolinone sodium salt (MDL 427): a new antiallergic agent” (1986).

Assays:
Format in all cases: functional
Rattus norvegicus [1] = test: Compound was evaluated in rat PCA (passive cutaneous anaphylaxis) test administered at 100 mg/kg orally and the inhibition of PCA due to inhibition of IgE mediated release was determined; conditions: for inhibition in vivo at 100 mg/kg: Rattus norvegicus, po
Rattus norvegicus [2] = test: Compound was evaluated in rat PCA(passive cutaneous anaphylaxis) test administered intravenously.; conditions: iv
Rattus norvegicus [3] = test: Evaluated in rat PCA (passive cutaneous anaphylaxis) test administered at 60 mg/kg ip and the inhibition of PCA due to inhibition of IgE mediated release was determined; conditions: route intraperitoneal; for inhibition in vivo at 60 mg/kg: Rattus norvegicus, ip
Rattus norvegicus [4] = test: Compound was evaluated in rat PCA (passive cutaneous anaphylaxis) test administered intravenously; conditions: iv

Structure (SMILES): O.O=c1c2ccccc2ncn1-c1nnn[n-]1.[Na+]
- Inhibition (Rattus norvegicus [1]; route oral): 97%
- ED50 (Rattus norvegicus [2]): 0.2 mg/kg
- Inhibition (Rattus norvegicus [3]): 93%

Structure (SMILES): O=C([O-])c1cc(=O)c2c(OCC(O)COc3cccc4oc(C(=O)[O-])cc(=O)c34)cccc2o1.[Na+].[Na+] [CROMOLYN SODIUM]
- inhibition in vivo at 100 mg/kg (Rattus norvegicus [1]): 0%
- ED50 (Rattus norvegicus [4]): 0.7 mg/kg
- inhibition in vivo at 60 mg/kg (Rattus norvegicus [3]): 100%

Structure (SMILES): O=c1c2ccccc2ncn1-c1cc[nH]n1
- inhibition in vivo at 60 mg/kg (Rattus norvegicus [3]): 5%

Structure (SMILES): O=c1c2ccccc2ncn1-n1cnnc1
- inhibition in vivo at 60 mg/kg (Rattus norvegicus [3]): 0%

Structure (SMILES): Nc1ccccc1C(=O)Nc1nn[nH]n1
- inhibition in vivo at 100 mg/kg (Rattus norvegicus [1]): 7%
- ED50 (Rattus norvegicus [4]): 10.5 mg/kg
- inhibition in vivo at 60 mg/kg (Rattus norvegicus [3]): 59%

Structure (SMILES): Cc1cccc2ncn(-c3nn[nH]n3)c(=O)c12
- inhibition in vivo at 60 mg/kg (Rattus norvegicus [3]): 80%

Structure (SMILES): O=c1c2ccccc2ncn1-c1nc[nH]n1
- inhibition in vivo at 60 mg/kg (Rattus norvegicus [3]): 75%

Structure (SMILES): CCc1nc2ccccc2c(=O)n1-c1nn[nH]n1
- inhibition in vivo at 60 mg/kg (Rattus norvegicus [3]): 41%

Structure (SMILES): O=CNc1ccccc1C(=O)Nc1nn[nH]n1
- inhibition in vivo at 100 mg/kg (Rattus norvegicus [1]): 91%
- inhibition in vivo at 60 mg/kg (Rattus norvegicus [3]): 89%

Structure (SMILES): O=c1c2cc(Cl)ccc2ncn1-c1nn[nH]n1
- inhibition in vivo at 60 mg/kg (Rattus norvegicus [3]): 89%

Structure (SMILES): Cc1nc2ccccc2c(=O)n1-c1nn[nH]n1
- inhibition in vivo at 60 mg/kg (Rattus norvegicus [3]): 22%

Structure (SMILES): Cc1ccc2ncn(-c3nn[nH]n3)c(=O)c2c1
- inhibition in vivo at 60 mg/kg (Rattus norvegicus [3]): 100%

Structure (SMILES): O=c1c2cc3c(cc2ncn1-c1nn[nH]n1)OCO3
- inhibition in vivo at 60 mg/kg (Rattus norvegicus [3]): 90%

Structure (SMILES): COc1cccc2c(=O)n(-c3nn[nH]n3)cnc12
- inhibition in vivo at 60 mg/kg (Rattus norvegicus [3]): 44%

Structure (SMILES): O=c1c2ccccc2ncn1-c1nnn[nH]1
- inhibition in vivo at 100 mg/kg (Rattus norvegicus [1]): 89%
- inhibition in vivo at 60 mg/kg (Rattus norvegicus [3]): 100%

Structure (SMILES): Cc1cccc2c(=O)n(-c3nn[nH]n3)cnc12
- inhibition in vivo at 60 mg/kg (Rattus norvegicus [3]): 64%

Structure (SMILES): O=c1c2ccccc2nc(-c2ccccc2)n1-c1nn[nH]n1
- inhibition in vivo at 60 mg/kg (Rattus norvegicus [3]): 27%
